# Literature values in US20140056862A1, “NUTRITIONAL COMPOSITIONS HAVING ALPHA-HICA AND ALPHA-KETOGLUTARATE” (Nestec S.A., priority 2011, published 2014).
# Test system: intestinal mammalian target of rapamycin (mTOR); intestinal villi and crypts
# Details: piglet stressed with LPS
compound,measurement,setting,value
"O=C(O)CCC(=O)C(=O)O [AKG, α-ketoglutarate]",crypt depth,,reduced
same,villous height,,increased
same,phosphorylation of intestinal mammalian target of rapamycin (mTOR),leading to increased protein synthesis and anti-inflammatory responses,increased
